pEC50, pIC50, pKi: −log10 of the molar value.
Key:
P2Y purinoceptor 1 [1] = target: T1, P2Y purinoceptor 1 (Homo sapiens, UniProt P47900); assay: Agonist activity at human P2Y1R in human 1321N1 cells; type: cell-based
P2Y purinoceptor 1 [2] = target: T1, P2Y purinoceptor 1; assay: Agonist activity at human P2Y1R in human 1321N1 cells assessed as efficacy relative to control; type: cell-based
[3] = Inhibition of S-adenosyl homocysteine hydrolase (unknown origin) relative to control; details: Homo sapiens; concentration not given here
[4] = target: T2, 5-hydroxytryptamine receptor 2C (Homo sapiens, UniProt P28335); assay: Binding affinity to 5HT2C receptor (unknown origin) assessed as inhibition constant
T2 sequence (P28335 whole entry): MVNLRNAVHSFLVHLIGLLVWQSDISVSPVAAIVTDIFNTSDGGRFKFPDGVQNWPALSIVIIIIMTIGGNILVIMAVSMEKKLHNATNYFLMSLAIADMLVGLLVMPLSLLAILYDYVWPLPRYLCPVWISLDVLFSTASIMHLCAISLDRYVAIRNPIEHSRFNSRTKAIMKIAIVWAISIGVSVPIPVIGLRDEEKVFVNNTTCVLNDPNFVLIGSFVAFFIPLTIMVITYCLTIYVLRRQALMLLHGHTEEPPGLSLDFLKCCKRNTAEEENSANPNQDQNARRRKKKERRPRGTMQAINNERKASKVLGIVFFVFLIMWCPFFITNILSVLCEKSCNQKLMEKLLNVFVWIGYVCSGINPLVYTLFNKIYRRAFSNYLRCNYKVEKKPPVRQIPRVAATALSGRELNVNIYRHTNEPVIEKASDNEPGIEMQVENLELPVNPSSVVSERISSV

[5] = target: 5-hydroxytryptamine receptor 2A (Homo sapiens, UniProt P28223); assay: Binding affinity to 5HT2A receptor (unknown origin) assessed as inhibition constant
Sequence of 5-hydroxytryptamine receptor 2A (P28223 whole entry): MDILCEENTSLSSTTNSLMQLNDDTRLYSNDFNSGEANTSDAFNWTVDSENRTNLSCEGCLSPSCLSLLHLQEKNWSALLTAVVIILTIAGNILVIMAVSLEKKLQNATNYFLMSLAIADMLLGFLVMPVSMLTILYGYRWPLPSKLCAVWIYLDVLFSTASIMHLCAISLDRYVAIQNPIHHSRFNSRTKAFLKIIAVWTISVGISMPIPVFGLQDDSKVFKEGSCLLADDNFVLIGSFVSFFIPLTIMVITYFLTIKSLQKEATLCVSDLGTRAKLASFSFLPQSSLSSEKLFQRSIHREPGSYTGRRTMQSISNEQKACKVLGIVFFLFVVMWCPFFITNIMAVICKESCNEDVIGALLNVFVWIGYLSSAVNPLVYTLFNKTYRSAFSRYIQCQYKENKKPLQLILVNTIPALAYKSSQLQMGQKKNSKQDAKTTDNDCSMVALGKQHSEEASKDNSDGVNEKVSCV

[6] = target: 5-hydroxytryptamine receptor 2B (Homo sapiens, UniProt P41595); assay: Binding affinity to 5HT2B receptor (unknown origin) assessed as inhibition constant
Sequence of 5-hydroxytryptamine receptor 2B (P41595 whole entry): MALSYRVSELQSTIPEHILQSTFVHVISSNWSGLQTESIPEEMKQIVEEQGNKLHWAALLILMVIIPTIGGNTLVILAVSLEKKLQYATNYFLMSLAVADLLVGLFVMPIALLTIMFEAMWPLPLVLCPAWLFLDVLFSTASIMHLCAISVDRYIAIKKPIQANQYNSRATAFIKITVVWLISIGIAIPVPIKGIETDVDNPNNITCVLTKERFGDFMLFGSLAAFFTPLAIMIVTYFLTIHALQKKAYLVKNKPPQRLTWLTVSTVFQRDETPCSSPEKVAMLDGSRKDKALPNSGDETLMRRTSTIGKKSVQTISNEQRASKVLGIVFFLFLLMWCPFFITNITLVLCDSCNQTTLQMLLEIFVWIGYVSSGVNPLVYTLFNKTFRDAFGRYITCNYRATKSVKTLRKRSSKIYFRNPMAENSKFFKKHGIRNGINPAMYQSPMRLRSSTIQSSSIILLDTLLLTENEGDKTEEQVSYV

[7] = target: T3, Equilibrative nucleoside transporter 1 (Homo sapiens, UniProt Q99808); assay: Inhibition of ENT1 (unknown origin)
T3 sequence (Q99808 whole entry): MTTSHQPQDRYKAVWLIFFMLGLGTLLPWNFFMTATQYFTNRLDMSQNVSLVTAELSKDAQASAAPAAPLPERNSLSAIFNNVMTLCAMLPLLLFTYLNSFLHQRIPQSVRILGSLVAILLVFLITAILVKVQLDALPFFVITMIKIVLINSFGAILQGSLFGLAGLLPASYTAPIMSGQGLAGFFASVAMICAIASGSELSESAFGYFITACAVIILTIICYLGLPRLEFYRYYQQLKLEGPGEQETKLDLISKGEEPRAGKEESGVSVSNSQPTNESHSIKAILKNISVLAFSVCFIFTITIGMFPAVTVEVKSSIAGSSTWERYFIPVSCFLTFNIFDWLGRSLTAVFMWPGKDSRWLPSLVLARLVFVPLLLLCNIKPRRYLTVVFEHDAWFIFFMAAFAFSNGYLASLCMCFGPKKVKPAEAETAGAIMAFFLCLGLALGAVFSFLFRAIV

Adenosine receptor A3 = target: T4, Adenosine receptor A3 (Mus musculus, UniProt Q61618); assay: Binding affinity to mouse adenosine A3 receptor assessed as inhibition constant
T4 sequence (Q61618 whole entry): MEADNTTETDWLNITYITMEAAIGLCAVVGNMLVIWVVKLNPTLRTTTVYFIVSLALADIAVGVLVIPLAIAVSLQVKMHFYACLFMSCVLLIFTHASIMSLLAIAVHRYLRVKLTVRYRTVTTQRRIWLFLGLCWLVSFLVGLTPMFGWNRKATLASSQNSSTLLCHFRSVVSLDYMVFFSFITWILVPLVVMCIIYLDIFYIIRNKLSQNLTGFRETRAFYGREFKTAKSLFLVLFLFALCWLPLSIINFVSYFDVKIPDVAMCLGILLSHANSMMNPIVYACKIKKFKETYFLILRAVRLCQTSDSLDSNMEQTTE

Adenosine receptor A1 = Adenosine receptor A1 (Homo sapiens, UniProt P30542); assay: Binding affinity to human adenosine A1 receptor assessed as inhibition constant
Sequence of Adenosine receptor A1 (P30542 whole entry): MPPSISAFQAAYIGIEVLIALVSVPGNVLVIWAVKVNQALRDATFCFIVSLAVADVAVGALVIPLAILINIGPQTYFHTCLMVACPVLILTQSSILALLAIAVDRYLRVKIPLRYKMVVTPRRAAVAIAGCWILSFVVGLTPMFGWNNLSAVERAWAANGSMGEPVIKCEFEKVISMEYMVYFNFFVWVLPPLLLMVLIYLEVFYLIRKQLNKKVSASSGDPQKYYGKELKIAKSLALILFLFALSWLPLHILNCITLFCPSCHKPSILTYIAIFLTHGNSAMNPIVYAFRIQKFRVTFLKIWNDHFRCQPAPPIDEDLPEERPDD

T1 sequence (P47900 whole entry): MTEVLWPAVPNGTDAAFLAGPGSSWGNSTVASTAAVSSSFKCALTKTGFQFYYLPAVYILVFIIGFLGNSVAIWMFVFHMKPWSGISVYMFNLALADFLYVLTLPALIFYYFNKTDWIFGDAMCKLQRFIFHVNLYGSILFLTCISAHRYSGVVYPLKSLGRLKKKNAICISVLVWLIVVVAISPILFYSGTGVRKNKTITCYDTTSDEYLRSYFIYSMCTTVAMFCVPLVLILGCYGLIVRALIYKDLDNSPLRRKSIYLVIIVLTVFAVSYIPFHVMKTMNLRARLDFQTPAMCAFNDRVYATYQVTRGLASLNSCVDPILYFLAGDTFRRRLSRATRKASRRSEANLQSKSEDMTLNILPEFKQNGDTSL

Nc1ncnc2c1ncn2[C@H]1C[C@H](OP(=O)(O)O)[C@@H](COP(=O)(O)O)O1
pEC50 (P2Y purinoceptor 1 [1]): 5.89 | Efficacy (P2Y purinoceptor 1 [2]; filed as agonist): 77%

CNc1nc(I)nc2c1ncn2[C@H]1C[C@H](OP(=O)(O)O)[C@@]2(COP(=O)(O)O)C[C@H]12
pEC50 (P2Y purinoceptor 1 [1]): 8.08 | Efficacy (P2Y purinoceptor 1 [2]): 0%

Nc1ncnc2c1ncn2[C@H]1[C@H](O)[C@H](O)[C@]2(CO)C[C@H]12
inhibition [3]: 30%

OC[C@]12C[C@@H]1[C@@H](n1cnc3c(NC(C4CC4)C4CC4)nc(Cl)nc31)[C@H](O)[C@@H]2O
pKi [4]: 7.08 | pKi [5]: < 5.00

Nc1ncnc2c1ncn2[C@@H]1C[C@H](CO)[C@@H](O)[C@H]1O
inhibition [3]: 30%

Nc1ncnc2c1ncn2[C@@H]1C=C(CO)[C@@H](O)[C@H]1O
inhibition [3]: 30%

Nc1ncnc2c1ncn2[C@H]1[C@H](O)[C@H](O)[C@]2(CO)O[C@H]12
inhibition [3]: 30%

Nc1ncnc2c1ncn2[C@]12C[C@H](OP(=O)(O)O)[C@@H](COP(=O)(O)O)[C@@H]1C2
pEC50 (P2Y purinoceptor 1 [1]): 4.72 | Efficacy (P2Y purinoceptor 1 [2]; filed as agonist): 50%

CNC(=O)[C@]12C[C@@H]1[C@@H](n1cnc3c(NC(C4CC4)C4CC4)nc(Cl)nc31)[C@H](O)[C@@H]2O
pKi [6]: 7.64 | pKi [4]: 6.57 | pKi [5]: < 5.00

O=[N+]([O-])c1ccc(CSc2ncnc3c2ncn3[C@H]2[C@H](O)[C@H](O)[C@@]3(CO)C[C@H]23)cc1
pIC50 [7]: 7.52

CNc1nc(C#Cc2ccc(Cl)s2)nc2c1ncn2[C@H]1[C@H](O)[C@H](O)[C@@]2(C(=O)OC)C[C@H]12
pKi (Adenosine receptor A3): < 5.00

CCCNc1nc(C#Cc2ccc(Cl)s2)nc2c1ncn2[C@H]1[C@H](O)[C@H](O)[C@]2(C(=O)NC)C[C@H]12
pKi (Adenosine receptor A1): < 5.00

CCOC(=O)[C@]12C[C@@H]1[C@@H](n1cnc3c(NC(C4CC4)C4CC4)nc(Cl)nc31)[C@H](O)[C@@H]2O
pKi [6]: 7.82 | pKi [4]: 7.52 | pKi [5]: < 5.00
